According to publication PMC6270516 (Molecules, 2013):
≈ marks a conversion by molar mass, not a printed value.

Assay: physchem
Details: fassgf or other biorelevant

solubility [µg/mL] | Structure (SMILES)
175 (≈ 510 µM) | C=CCn1c2c(c3ccccc31)CCN1C(=O)c3ccccc3N(C)C21 (centres unmarked) [2-1, N13-Allylevodiamine]
> 334 | CCCCn1c2c(c3ccccc31)CCN1C(=O)c3ccccc3N(C)C21 (centres unmarked) [2-2, N13-Butylevodiamine]
322 (≈ 862 µM) | CCCCCn1c2c(c3ccccc31)CCN1C(=O)c3ccccc3N(C)C21 (centres unmarked) [2-3, N13-Pentylevodiamine]
162 (≈ 436 µM) | CC(C)=CCn1c2c(c3ccccc31)CCN1C(=O)c3ccccc3N(C)C21 (centres unmarked) [2-4, N13-(3-Methyl-2-butenyl)evodiamine]
72.3 (≈ 174 µM) | CCCCCCCCn1c2c(c3ccccc31)CCN1C(=O)c3ccccc3N(C)C21 (centres unmarked) [2-5, N13-Octylevodiamine]
142 (≈ 338 µM) | CN1c2ccccc2C(=O)N2CCc3c(n(CCCc4ccccc4)c4ccccc34)C21 (centres unmarked) [2-6, N13-(3-Phenylpropyl)evodiamine]
> 310 | CC(C)Cn1c2c(c3ccccc31)CCN1C(=O)c3ccccc3N(C)C21 (centres unmarked) [2-7, N13-Isobutylevodiamine]
> 373 | CC(C)CCn1c2c(c3ccccc31)CCN1C(=O)c3ccccc3N(C)C21 (centres unmarked) [2-8, N13-Isopentylevodiamine]
322 (≈ 848 µM) | CN1c2ccccc2C(=O)N2CCc3c(n(CCCCl)c4ccccc34)C21 (centres unmarked) [2-9, N13-(3-Chloropropyl)evodiamine]
273 (≈ 693 µM) | CN1c2ccccc2C(=O)N2CCc3c(n(CCCCCl)c4ccccc34)C21 (centres unmarked) [2-11, N13-(4-Chlorobutyl)evodiamine]
73.7 to 147 (≈ 175 to 349 µM) | CN1c2ccccc2C(=O)N2CCc3c(n(CC(=O)c4ccccc4)c4ccccc34)C21 (centres unmarked) [2-13, N13-(Benzonylmethyl)evodiamine]
41.6 to 83.1 (≈ 115 to 230 µM) | COCCn1c2c(c3ccccc31)CCN1C(=O)c3ccccc3N(C)C21 (centres unmarked) [2-14, N13-(2-Methoxyethyl)evodiamine]
148 (≈ 365 µM) | COCCOCCn1c2c(c3ccccc31)CCN1C(=O)c3ccccc3N(C)C21 (centres unmarked) [2-17, N13-(2-(2-Methoxyethoxy)ethyl)evodiamine]
286 (≈ 682 µM) | CCOC(Cn1c2c(c3ccccc31)CCN1C(=O)c3ccccc3N(C)C21)OCC (centres unmarked) [2-18, N13-(2,2-Diethoxyethyl)evodiamine]

Structure (SMILES) | solubility [µg/mL]
CCCCOCCn1c2c(c3ccccc31)CCN1C(=O)c3ccccc3N(C)C21 (centres unmarked) [2-15, N13-(2-Butoxyethyl)evodiamine] | 74.4 to 298 (≈ 184 to 738 µM)
CC(=O)OCCn1c2c(c3ccccc31)CCN1C(=O)c3ccccc3N(C)C21 (centres unmarked) [2-19, N13-(2-Acetoxyethyl)evodiamine] | 308 (≈ 791 µM)

Assay: physchem
Details: simulated gastric fluid

solubility [µg/mL] | Structure (SMILES)
60 (≈ 175 µM) | C=CCn1c2c(c3ccccc31)CCN1C(=O)c3ccccc3N(C)C21 (centres unmarked) [2-1, N13-Allylevodiamine]
> 120 | CCCCn1c2c(c3ccccc31)CCN1C(=O)c3ccccc3N(C)C21 (centres unmarked) [2-2, N13-Butylevodiamine]
60 to 120 (≈ 161 to 321 µM) | CCCCCn1c2c(c3ccccc31)CCN1C(=O)c3ccccc3N(C)C21 (centres unmarked) [2-3, N13-Pentylevodiamine]
60 (≈ 162 µM) | CC(C)=CCn1c2c(c3ccccc31)CCN1C(=O)c3ccccc3N(C)C21 (centres unmarked) [2-4, N13-(3-Methyl-2-butenyl)evodiamine]
30 (≈ 72.2 µM) | CCCCCCCCn1c2c(c3ccccc31)CCN1C(=O)c3ccccc3N(C)C21 (centres unmarked) [2-5, N13-Octylevodiamine]
60 (≈ 142 µM) | CN1c2ccccc2C(=O)N2CCc3c(n(CCCc4ccccc4)c4ccccc34)C21 (centres unmarked) [2-6, N13-(3-Phenylpropyl)evodiamine]
> 110 | CC(C)Cn1c2c(c3ccccc31)CCN1C(=O)c3ccccc3N(C)C21 (centres unmarked) [2-7, N13-Isobutylevodiamine]
> 150 | CC(C)CCn1c2c(c3ccccc31)CCN1C(=O)c3ccccc3N(C)C21 (centres unmarked) [2-8, N13-Isopentylevodiamine]
60 to 120 (≈ 158 to 316 µM) | CN1c2ccccc2C(=O)N2CCc3c(n(CCCCl)c4ccccc34)C21 (centres unmarked) [2-9, N13-(3-Chloropropyl)evodiamine]
98 (≈ 249 µM) | CN1c2ccccc2C(=O)N2CCc3c(n(CCCCCl)c4ccccc34)C21 (centres unmarked) [2-11, N13-(4-Chlorobutyl)evodiamine]
30 to 60 (≈ 71.2 to 142 µM) | CN1c2ccccc2C(=O)N2CCc3c(n(CC(=O)c4ccccc4)c4ccccc34)C21 (centres unmarked) [2-13, N13-(Benzonylmethyl)evodiamine]
15 to 30 (≈ 41.5 to 83 µM) | COCCn1c2c(c3ccccc31)CCN1C(=O)c3ccccc3N(C)C21 (centres unmarked) [2-14, N13-(2-Methoxyethyl)evodiamine]
60 (≈ 148 µM) | COCCOCCn1c2c(c3ccccc31)CCN1C(=O)c3ccccc3N(C)C21 (centres unmarked) [2-17, N13-(2-(2-Methoxyethoxy)ethyl)evodiamine]
> 120 | CCOC(Cn1c2c(c3ccccc31)CCN1C(=O)c3ccccc3N(C)C21)OCC (centres unmarked) [2-18, N13-(2,2-Diethoxyethyl)evodiamine]

Structure (SMILES) | solubility [µg/mL]
CCCCOCCn1c2c(c3ccccc31)CCN1C(=O)c3ccccc3N(C)C21 (centres unmarked) [2-15, N13-(2-Butoxyethyl)evodiamine] | 30 to 120 (≈ 74.3 to 297 µM)
CC(=O)OCCn1c2c(c3ccccc31)CCN1C(=O)c3ccccc3N(C)C21 (centres unmarked) [2-19, N13-(2-Acetoxyethyl)evodiamine] | > 120

Assay: not given
Details: not given

melting point | Structure (SMILES)
163 to 165 °C | C=CCn1c2c(c3ccccc31)CCN1C(=O)c3ccccc3N(C)C21 (centres unmarked) [2-1, N13-Allylevodiamine]
141 to 143 °C | CCCCn1c2c(c3ccccc31)CCN1C(=O)c3ccccc3N(C)C21 (centres unmarked) [2-2, N13-Butylevodiamine]
143 to 145 °C | CCCCCn1c2c(c3ccccc31)CCN1C(=O)c3ccccc3N(C)C21 (centres unmarked) [2-3, N13-Pentylevodiamine]
65 to 67 °C | CCCCCCCCn1c2c(c3ccccc31)CCN1C(=O)c3ccccc3N(C)C21 (centres unmarked) [2-5, N13-Octylevodiamine]
158 to 160 °C | CN1c2ccccc2C(=O)N2CCc3c(n(CCCc4ccccc4)c4ccccc34)C21 (centres unmarked) [2-6, N13-(3-Phenylpropyl)evodiamine]
154 to 156 °C | CC(C)Cn1c2c(c3ccccc31)CCN1C(=O)c3ccccc3N(C)C21 (centres unmarked) [2-7, N13-Isobutylevodiamine]
108 to 110 °C | CC(C)CCn1c2c(c3ccccc31)CCN1C(=O)c3ccccc3N(C)C21 (centres unmarked) [2-8, N13-Isopentylevodiamine]
118 to 120 °C | CN1c2ccccc2C(=O)N2CCc3c(n(CCCCl)c4ccccc34)C21 (centres unmarked) [2-9, N13-(3-Chloropropyl)evodiamine]
127 to 129 °C | CN1c2ccccc2C(=O)N2CCc3c(n(CCCCCl)c4ccccc34)C21 (centres unmarked) [2-11, N13-(4-Chlorobutyl)evodiamine]
245 °C (dec.) | CN1c2ccccc2C(=O)N2CCc3c(n(CC(=O)c4ccccc4)c4ccccc34)C21 (centres unmarked) [2-13, N13-(Benzonylmethyl)evodiamine]
166 to 168 °C | COCCn1c2c(c3ccccc31)CCN1C(=O)c3ccccc3N(C)C21 (centres unmarked) [2-14, N13-(2-Methoxyethyl)evodiamine]
116 to 118 °C | COCCOCCn1c2c(c3ccccc31)CCN1C(=O)c3ccccc3N(C)C21 (centres unmarked) [2-17, N13-(2-(2-Methoxyethoxy)ethyl)evodiamine]
117 to 119 °C | CCOC(Cn1c2c(c3ccccc31)CCN1C(=O)c3ccccc3N(C)C21)OCC (centres unmarked) [2-18, N13-(2,2-Diethoxyethyl)evodiamine]

Structure (SMILES) | melting point
CCCCOCCn1c2c(c3ccccc31)CCN1C(=O)c3ccccc3N(C)C21 (centres unmarked) [2-15, N13-(2-Butoxyethyl)evodiamine] | 68 to 70 °C
CC(=O)OCCn1c2c(c3ccccc31)CCN1C(=O)c3ccccc3N(C)C21 (centres unmarked) [2-19, N13-(2-Acetoxyethyl)evodiamine] | 211 to 213 °C
